Source: the supplement of paper PMC7021759
± gives the standard deviation of the averaged measurements.

System: SK-N-MM (SKNMM-MYCN, doxycycline-inducible MYCN)
Test: area under dose-response curve (CellTiter-Glo viability normalised to plate controls) (AUC (arbitrary units)); higher = more loss of viability; extreme values may be limits of the assay
Method in brief: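 For each compound, area under the dose-response curve was calculated from log2 CellTiter-Glo luminescence normalised to the positive and negative controls on each plate. The cells were SK-N-MM with doxycycline-inducible MYCN, plated at 1250 cells/100 μL in 96-well plates and moved to medium with or without doxycycline about 24 h later. Two days after that, 10-point 1:3 dilution series were pin-transferred (890-fold stock dilution), with re-dosing on day 4 and readout 3 or 8 days after drugging.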

[1] = MYCN induction (doxycycline): +doxycycline (MYCN induced), time after drugging: 3 days
[2] = MYCN induction (doxycycline): +doxycycline (MYCN induced), time after drugging: 8 days
[3] = MYCN induction (doxycycline): no doxycycline (MYCN not induced), time after drugging: 3 days
[4] = MYCN induction (doxycycline): no doxycycline (MYCN not induced), time after drugging: 8 days

Compound	area under dose-response curve [1]	area under dose-response curve [2]	area under dose-response curve [3]	area under dose-response curve [4]
COc1cc(NCc2ccc3nc(N)nc(N)c3c2C)cc(OC)c1OC [TRIMETREXATE]	27.5	140	18.8	47.1
COc1cc2c(NC3CCN(C(C)C)CC3)nc(N3CCC(F)(F)CC3)nc2cc1OCCCN1CCCC1 [UNC0642]	0	203	1.33	145
COc1cc2/c(=N/c3ccc(Br)cc3F)nc[nH]c2cc1OCC1CCN(C)CC1 [VANDETANIB]	3.18	0	2.99	125
CS(=O)(=O)c1ccc(-c2cnc(N)c(C(=O)Nc3ccccc3)n2)cc1 [VE-821]	41.9	75.9	8.07	32
CCCS(=O)(=O)Nc1ccc(F)c(C(=O)c2c[nH]c3ncc(-c4ccc(Cl)cc4)cc23)c1F [VEMURAFENIB]	18.3	24.6	15.8	0
CC1(C)CCC(CN2CCN(c3ccc(C(=O)NS(=O)(=O)c4ccc(NCC5CCOCC5)c([N+](=O)[O-])c4)c(Oc4cnc5[nH]ccc5c4)c3)CC2)=C(c2ccc(Cl)cc2)C1 [VENETOCLAX]	–	2.61 ± 3.7	0	0
CC[C@]1(O)C[C@@H]2CN(CCc3c([nH]c4ccccc34)[C@@](C(=O)OC)(c3cc4c(cc3OC)N(C)[C@H]3[C@@](O)(C(=O)OC)[C@H](OC(C)=O)[C@]5(CC)C=CCN6CC[C@]43[C@@H]65)C2)C1 [VINBLASTINE]	190	284	98.1	177
CC[C@]1(O)C[C@H]2CN(CCc3c([nH]c4ccccc34)[C@@](C(=O)OC)(c3cc4c(cc3OC)N(C=O)[C@H]3[C@@](O)(C(=O)OC)[C@H](OC(C)=O)[C@]5(CC)C=CCN6CC[C@]43[C@@H]65)C2)C1 [VINCRISTINE]	185	253	89.2	146
CCC1=C[C@@H]2CN(C1)Cc1c([nH]c3ccccc13)[C@@](C(=O)OC)(c1cc3c(cc1OC)N(C)[C@H]1[C@@](O)(C(=O)OC)[C@H](OC(C)=O)[C@]4(CC)C=CCN5CC[C@]31[C@@H]54)C2 [VINORELBINE]	207	296	99.3	144
CS(=O)(=O)c1ccc(C(=O)Nc2ccc(Cl)c(-c3ccccn3)c2)c(Cl)c1 [VISMODEGIB]	0	0	0	0
CC[C@@H]1C(=O)N(C)c2cnc(Nc3ccc(C(=O)N[C@H]4CC[C@H](N5CCN(CC6CC6)CC5)CC4)cc3OC)nc2N1C(C)C [VOLASERTIB]	87.9	138	–	75.2
O=C(CCCCCCC(=O)Nc1ccccc1)NO [VORINOSTAT]	78.4	191	58.2	145
CN[C@H]1CN(c2ccc3c(=O)c(C(=O)O)cn(-c4nccs4)c3n2)C[C@@H]1OC [VOSAROXIN]	39.3	92.8	16.4	48.5
